# Data reported in patent US12486267B2, “Imidazo[1,2-A]pyridine and [1,2,4]triazolo[1,5-A]pyridine derivatives as TLR9 inhibitors for the treatment of fibrosis” (BRISTOL-MYERS SQUIBB COMPANY, priority 2020, dated 2025).
# Columns and labels:
# Assay type in all cases: cell-based
# human TLR8 = target: T1, human TLR8 (Homo sapiens, UniProt Q9NR97); test: TLR8 inhibition reporter assay (HEK-Blue cells, SEAP reporter); details: HEK-Blue cells overexpressing human TLR8; stimulated with R848 15.9 μM; 22 hour incubation; SEAP readout
# T1 sequence (Q9NR97 27-1041): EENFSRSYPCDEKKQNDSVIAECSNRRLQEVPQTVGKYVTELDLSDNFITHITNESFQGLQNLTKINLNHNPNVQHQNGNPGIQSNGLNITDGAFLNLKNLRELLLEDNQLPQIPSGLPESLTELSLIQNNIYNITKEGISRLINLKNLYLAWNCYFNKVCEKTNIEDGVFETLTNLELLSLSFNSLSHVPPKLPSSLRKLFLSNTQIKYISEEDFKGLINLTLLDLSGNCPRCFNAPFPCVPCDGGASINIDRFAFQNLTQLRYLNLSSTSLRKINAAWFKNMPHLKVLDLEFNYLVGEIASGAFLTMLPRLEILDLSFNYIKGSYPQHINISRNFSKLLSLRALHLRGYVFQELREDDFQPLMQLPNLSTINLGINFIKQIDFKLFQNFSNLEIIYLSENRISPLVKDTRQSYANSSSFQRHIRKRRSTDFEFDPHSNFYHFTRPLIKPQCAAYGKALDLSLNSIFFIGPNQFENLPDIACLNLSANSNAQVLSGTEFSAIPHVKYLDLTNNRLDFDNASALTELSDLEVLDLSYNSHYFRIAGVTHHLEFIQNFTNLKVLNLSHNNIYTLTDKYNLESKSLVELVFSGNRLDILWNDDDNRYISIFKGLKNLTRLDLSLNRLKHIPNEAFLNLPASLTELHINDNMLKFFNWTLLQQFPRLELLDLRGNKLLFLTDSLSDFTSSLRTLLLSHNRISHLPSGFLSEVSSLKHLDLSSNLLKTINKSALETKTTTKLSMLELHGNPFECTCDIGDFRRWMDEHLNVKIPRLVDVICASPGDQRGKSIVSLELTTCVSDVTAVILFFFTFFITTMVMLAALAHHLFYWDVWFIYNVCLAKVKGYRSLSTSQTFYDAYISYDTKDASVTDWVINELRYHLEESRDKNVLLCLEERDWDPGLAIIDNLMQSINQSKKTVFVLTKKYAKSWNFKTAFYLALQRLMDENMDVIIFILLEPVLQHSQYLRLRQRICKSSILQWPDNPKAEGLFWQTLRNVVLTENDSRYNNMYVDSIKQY
# How it was run: (§1)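 HEK-Blue cells with NF-κB/AP-1-driven SEAP pre-treated 30 min with compound (0.05 nM–50 μM), then stimulated with gardiquimod 7.5 μM (TLR7), R848 15.9 μM (TLR8) or ODN2006 5 nM (TLR9). SEAP detected after 22 h at 37 °C; percent inhibition relative to agonist-plus-DMSO and known-inhibitor wells.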
# human TLR9 = target: T2, human TLR9 (Homo sapiens, UniProt Q9NR96); test: TLR9 inhibition reporter assay (HEK-Blue cells, SEAP reporter); details: HEK-Blue cells overexpressing human TLR9; stimulated with ODN2006 5 nM; 22 hour incubation; SEAP readout
# T2 sequence (Q9NR96 26-1032): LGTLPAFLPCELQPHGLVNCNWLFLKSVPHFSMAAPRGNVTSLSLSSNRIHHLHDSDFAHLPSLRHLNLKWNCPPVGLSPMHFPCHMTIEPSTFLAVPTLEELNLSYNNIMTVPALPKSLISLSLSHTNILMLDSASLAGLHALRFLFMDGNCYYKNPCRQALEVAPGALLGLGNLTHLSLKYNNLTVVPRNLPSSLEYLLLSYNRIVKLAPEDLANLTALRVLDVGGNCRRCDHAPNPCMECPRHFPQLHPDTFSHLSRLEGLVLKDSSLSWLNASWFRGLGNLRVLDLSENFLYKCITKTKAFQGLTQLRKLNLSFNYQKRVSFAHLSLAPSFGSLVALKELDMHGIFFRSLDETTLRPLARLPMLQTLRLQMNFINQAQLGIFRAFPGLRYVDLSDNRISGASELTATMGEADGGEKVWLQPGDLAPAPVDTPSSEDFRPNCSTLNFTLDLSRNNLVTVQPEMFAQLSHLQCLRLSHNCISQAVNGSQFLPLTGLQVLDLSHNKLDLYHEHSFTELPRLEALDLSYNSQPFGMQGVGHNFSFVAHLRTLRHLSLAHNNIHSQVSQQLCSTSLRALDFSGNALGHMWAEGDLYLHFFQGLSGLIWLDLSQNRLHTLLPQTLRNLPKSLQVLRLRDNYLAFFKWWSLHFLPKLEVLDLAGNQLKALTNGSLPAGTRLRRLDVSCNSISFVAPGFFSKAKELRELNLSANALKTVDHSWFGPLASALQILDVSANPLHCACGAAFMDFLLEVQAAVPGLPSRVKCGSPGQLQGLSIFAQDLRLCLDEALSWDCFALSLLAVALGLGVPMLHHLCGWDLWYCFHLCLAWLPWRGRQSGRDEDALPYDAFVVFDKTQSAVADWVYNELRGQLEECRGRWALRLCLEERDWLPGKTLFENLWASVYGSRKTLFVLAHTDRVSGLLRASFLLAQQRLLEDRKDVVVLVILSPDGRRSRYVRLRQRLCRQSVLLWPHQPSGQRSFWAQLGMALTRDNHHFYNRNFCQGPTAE
# How it was run: as §1
# human TLR7 = target: T3, human TLR7 (Homo sapiens, UniProt Q9NYK1); test: TLR7 inhibition reporter assay (HEK-Blue cells, SEAP reporter); details: HEK-Blue cells overexpressing human TLR7; stimulated with gardiquimod 7.5 μM; 22 hour incubation; SEAP readout
# T3 sequence (Q9NYK1 27-1049): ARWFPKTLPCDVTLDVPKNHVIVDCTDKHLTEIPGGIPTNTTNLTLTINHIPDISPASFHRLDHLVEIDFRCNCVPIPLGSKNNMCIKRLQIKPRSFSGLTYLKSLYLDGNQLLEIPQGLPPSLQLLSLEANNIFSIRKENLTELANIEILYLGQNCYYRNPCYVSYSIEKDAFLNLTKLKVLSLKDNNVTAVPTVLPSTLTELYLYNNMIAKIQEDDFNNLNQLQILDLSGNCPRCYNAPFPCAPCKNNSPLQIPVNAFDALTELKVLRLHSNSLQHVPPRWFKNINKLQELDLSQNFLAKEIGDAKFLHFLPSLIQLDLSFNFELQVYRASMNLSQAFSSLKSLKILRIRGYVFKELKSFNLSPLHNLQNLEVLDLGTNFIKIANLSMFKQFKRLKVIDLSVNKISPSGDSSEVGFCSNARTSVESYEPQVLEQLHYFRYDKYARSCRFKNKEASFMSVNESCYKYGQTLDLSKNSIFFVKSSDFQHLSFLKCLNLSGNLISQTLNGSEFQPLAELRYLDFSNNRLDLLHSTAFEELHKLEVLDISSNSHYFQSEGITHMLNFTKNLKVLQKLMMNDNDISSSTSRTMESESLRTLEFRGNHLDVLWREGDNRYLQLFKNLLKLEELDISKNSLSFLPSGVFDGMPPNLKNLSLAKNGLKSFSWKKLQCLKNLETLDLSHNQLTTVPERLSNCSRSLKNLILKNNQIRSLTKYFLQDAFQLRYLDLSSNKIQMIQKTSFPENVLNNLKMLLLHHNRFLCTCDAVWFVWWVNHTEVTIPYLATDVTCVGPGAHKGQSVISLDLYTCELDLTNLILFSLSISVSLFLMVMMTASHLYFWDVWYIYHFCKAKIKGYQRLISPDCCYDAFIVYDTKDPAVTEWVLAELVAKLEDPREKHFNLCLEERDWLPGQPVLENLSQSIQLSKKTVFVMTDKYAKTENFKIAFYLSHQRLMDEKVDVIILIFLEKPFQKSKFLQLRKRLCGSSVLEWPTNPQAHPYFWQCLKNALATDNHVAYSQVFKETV
# How it was run: as §1
SMILES,IC50 (human TLR8) [nM],IC50 (human TLR9) [nM],IC50 (human TLR7) [nM]
"COc1ccc(-c2cn3c(n2)CCC(C2CCN(C4CCN(C(=O)C5CC5)CC4)CC2)C3)cc1OC (single isomer, unassigned) [Example 44, cyclopropyl(4-(2-(3,4-dimethoxyphenyl)-5,6,7,8-tetrahydroimidazo[1,2-a]pyridin-6-yl)-[1,4′-bipiperidin]-1′-yl)methanone]",> 50000,314,45000
"COc1ccc(-c2cn3c(n2)CCC(C2CCN(C4CC5(C4)CN(C(C)C)C5)CC2)C3)cc1OC (single isomer, unassigned) [Example 46, 2-(3,4-dimethoxyphenyl)-6-(1-(2-isopropyl-2-azaspiro[3.3]heptan-6-yl)piperidin-4-yl)-5,6,7,8-tetrahydroimidazo[1,2-a]pyridine]",> 50000,272,30000
"COc1ccc(-c2cn3c(n2)CCC(C2CCN(C4CC5(C4)CN(C(C)C)C5)CC2)C3)cc1OC (single isomer, unassigned) [Example 47, 2-(3,4-dimethoxyphenyl)-6-(1-(2-isopropyl-2-azaspiro[3.3]heptan-6-yl)piperidin-4-yl)-5,6,7,8-tetrahydroimidazo[1,2-a]pyridine]",> 50000,47,> 50000
"COc1ccc(-c2cn3c(n2)CCC(C2CCN(C4CC5(C4)CN(C4CCC4)C5)CC2)C3)cc1OC (single isomer, unassigned) [Example 49, 6-(1-(2-cyclobutyl-2-azaspiro[3.3]heptan-6-yl)piperidin-4-yl)-2-(3,4-dimethoxyphenyl)-5,6,7,8-tetrahydroimidazo[1,2-a]pyridine]",> 50000,22,1800
"COc1ccc(-c2cn3c(n2)CCC(C2CCN(C4CC5(C4)CN(C4CCC4)C5)CC2)C3)cc1OC (single isomer, unassigned) [Example 50, 6-(1-(2-cyclobutyl-2-azaspiro[3.3]heptan-6-yl)piperidin-4-yl)-2-(3,4-dimethoxyphenyl)-5,6,7,8-tetrahydroimidazo[1,2-a]pyridine]",> 50000,40,5300
"COc1ccc(-c2cn3c(n2)CCC(C2CCN(C4CC5(C4)CN(CC(C)C)C5)CC2)C3)cc1OC (single isomer, unassigned) [Example 53, 2-(3,4-dimethoxyphenyl)-6-(1-(2-isobutyl-2-azaspiro[3.3]heptan-6-yl)piperidin-4-yl)-5,6,7,8-tetrahydroimidazo[1,2-a]pyridine]",> 50000,22,2600
"COc1ccc(-c2cn3c(n2)CCC(C2CCN(C4CC5(C4)CN(CC(C)C)C5)CC2)C3)cc1OC (single isomer, unassigned) [Example 54, 2-(3,4-dimethoxyphenyl)-6-(1-(2-isobutyl-2-azaspiro[3.3]heptan-6-yl)piperidin-4-yl)-5,6,7,8-tetrahydroimidazo[1,2-a]pyridine]",> 50000,1.5,830
"COc1ccc(-c2cn3c(n2)CCC(C2CCN(C4CCN(CC5CC5)CC4)CC2)C3)cc1OC (single isomer, unassigned) [Example 56, 6-(1′-(cyclopropylmethyl)-[1,4′-bipiperidin]-4-yl)-2-(3,4-dimethoxyphenyl)-5,6,7,8-tetrahydroimidazo[1,2-a]pyridine]",> 50000,540,3800
"COc1ccc(-c2cn3c(n2)CCC(C2CCN(C4CCN(CC5CC5)CC4)CC2)C3)cc1OC (single isomer, unassigned) [Example 57, 6-(1′-(cyclopropylmethyl)-[1,4′-bipiperidin]-4-yl)-2-(3,4-dimethoxyphenyl)-5,6,7,8-tetrahydroimidazo[1,2-a]pyridine]",> 50000,36,4200
"Cc1cc(C2CCN(C3CC4CCC(C3)N4C(C)C)CC2)cn2cc(-c3ccc(S(C)(=O)=O)cc3)nc12 (single isomer, unassigned) [Example 63, 6-(1-(8-isopropyl-8-azabicyclo[3.2.1]octan-3-yl)piperidin-4-yl)-8-methyl-2-(4-(methylsulfonyl)phenyl)imidazo[1,2-a]pyridine]",9500,97,5800
"CC(C)N1C2CCC1CC(N1CCC(c3cc(F)c4nc(-c5ccc(S(C)(=O)=O)cc5)cn4c3)CC1)C2 (single isomer, unassigned) [Example 68, 8-fluoro-6-(1-(8-isopropyl-8-azabicyclo[3.2.1]octan-3-yl)piperidin-4-yl)-2-(4-(methylsulfonyl)phenyl)imidazo[1,2-a]pyridine]",> 50000,110,8200
"CC(C)N1C2CCC1CC(N1CCC(c3cc(F)c4nc(-c5ccc(S(C)(=O)=O)cc5)cn4c3)CC1)C2 (single isomer, unassigned) [Example 69, 8-fluoro-6-(1-(8-isopropyl-8-azabicyclo[3.2.1]octan-3-yl)piperidin-4-yl)-2-(4-(methylsulfonyl)phenyl)imidazo[1,2-a]pyridine]",> 50000,26,3400
